molecular target: recombinant DYRK1A kinase (Homo sapiens (Human), UniProt Q13627); assay: DYRK1A kinase assay (Ser/Thr 18 peptide Z-lyte FRET assay); format: biochemical; conditions: DYRK1A 0.25 μg/mL, ATP 15 μM, Ser/Thr peptide 18 4 μM; one hour at room temperature; 11-point dose-response, duplicate
In short: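 Z-lyte FRET assay on Ser/Thr 18 peptide, kinase activity read as coumarin/fluorescein emission ratio; compounds incubated 1 h at room temperature, then development reagent 1 h, in duplicate. Phosphorylated and unphosphorylated peptide served as controls; IC50 by non-linear regression of dose-response curves.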

Compared with CC(=O)N1C[C@H](F)[C@H](Nc2nc(N)c3c(-c4ccc5nc(C)n(CC(F)F)c5n4)ccn3n2)C1 [Compound 700, 1-((3R,4S)-3-((4-Amino-5-(3-(2,2-difluoroethyl)-2-methyl-3H-imidazo[4,5-b]pyridin-5-yl)pyrrolo[2,1-f][1,2,4]triazin-2-yl)amino)-4-fluoropyrrolidin-1-yl)ethan-1-one], CC(=O)N1CC[C@H](Nc2nc(N)c3c(-c4ccc5nc(C)n(CC(F)F)c5n4)ccn3n2)[C@H](F)C1 [Compound 715, 1-((3R,4S)-4-((4-Amino-5-(3-(2,2-difluoroethyl)-2-methyl-3H-imidazo[4,5-b]pyridin-5-yl)pyrrolo[2,1-f][1,2,4]triazin-2-yl)amino)-3-fluoropiperidin-1-yl)ethan-1-one] is 2.5-fold lower in IC50: 1 nM for the first, 0.4 nM for the second. The second is the more potent here.

Cc1nc2ccc(-c3ccn4nc(N[C@@H]5CN(C6COC6)C[C@@H]5F)nc(N)c34)nc2n1CC(F)F [Compound 701, 5-(3-(2,2-Difluoroethyl)-2-methyl-3H-imidazo[4,5-b]pyridin-5-yl)-N^2-((3R,4S)-4-fluoro-1-(oxetan-3-yl)pyrrolidin-3-yl)pyrrolo[2,1-f][1,2,4]triazine-2,4-diamine] and Cc1nc2ccc(-c3ccn4nc(N[C@@H]5CN(C6COC6)C[C@@H]5F)nc(N)c34)nc2n1CC(F)(F)F [Compound 763, N^2-((3R,4S)-4-Fluoro-1-(oxetan-3-yl)pyrrolidin-3-yl)-5-(2-methyl-3-(2,2,2-trifluoroethyl)-3H-imidazo[4,5-b]pyridin-5-yl)pyrrolo[2,1-f][1,2,4]triazine-2,4-diamine] are within 1.5-fold of each other in IC50: 1 nM for the first, 1.4 nM for the second.

Compared with CC(=O)N1CC[C@@H](Nc2nc(N)c3c(-c4ccc5nc(C)n(CC(F)F)c5n4)ccn3n2)C(F)(F)C1 [Compound 729, (R)-1-(4-((4-Amino-5-(3-(2,2-difluoroethyl)-2-methyl-3H-imidazo[4,5-b]pyridin-5-yl)pyrrolo[2,1-f][1,2,4]triazin-2-yl)amino)-3,3-difluoropiperidin-1-yl)ethan-1-one], CC(=O)N1CC[C@@H](Nc2nc(N)c3c(-c4ccc5nnn(CC(F)F)c5n4)ccn3n2)C(F)(F)C1 [Compound 853, (R)-1-(4-((4-Amino-5-(3-(2,2-difluoroethyl)-3H-[1,2,3]triazolo[4,5-b]pyridin-5-yl)pyrrolo[2,1-f][1,2,4]triazin-2-yl)amino)-3,3-difluoropiperidin-1-yl)ethan-1-one] is 3.8-fold higher in IC50: 0.4 nM for the first, 1.5 nM for the second.

First: Cc1nc2ccc(-c3ccn4nc(N[C@@H]5CCN(C6COC6)CC5(F)F)nc(N)c34)nc2n1CC(F)F [Compound 730, (R)—N^2-(3,3-Difluoro-1-(oxetan-3-yl)piperidin-4-yl)-5-(3-(2,2-difluoroethyl)-2-methyl-3H-imidazo[4,5-b]pyridin-5-yl)pyrrolo[2,1-f][1,2,4]triazine-2,4-diamine]
Second: Cc1nc2ccc(-c3ccn4nc(N[C@@H]5CCN(C6COC6)CC5(F)F)nc(N)c34)nc2n1CC(F)(F)F [Compound 792, (R)—N^2-(3,3-Difluoro-1-(oxetan-3-yl)piperidin-4-yl)-5-(2-methyl-3-(2,2,2-trifluoroethyl)-3H-imidazo[4,5-b]pyridin-5-yl)pyrrolo[2,1-f][1,2,4]triazine-2,4-diamine]
The IC50 of the first is 2.3-fold lower: 2.1 nM for the first, 4.8 nM for the second. The first is the more potent here.

First: Cc1nc2ccc(-c3ccn4nc(N[C@H]5CC[C@](C)(O)CC5)nc(N)c34)nc2n1CC(F)(F)F [Compound 754, (1r,4r)-4-((4-Amino-5-(2-methyl-3-(2,2,2-trifluoroethyl)-3H-imidazo[4,5-b]pyridin-5-yl)pyrrolo[2,1-f][1,2,4]triazin-2-yl)amino)-1-methylcyclohexan-1-ol]
Second: Cc1nc2ccc(-c3ccn4nc(N[C@H]5CC[C@](C)(O)CC5)nc(N)c34)nc2n1CCF [Compound 995, (1r,4r)-4-((4-Amino-5-(3-(2-fluoroethyl)-2-methyl-3H-imidazo[4,5-b]pyridin-5-yl)pyrrolo[2,1-f][1,2,4]triazin-2-yl)amino)-1-methylcyclohexan-1-ol]
The IC50 of the first is 1.6-fold lower: 0.5 nM for the first, 0.8 nM for the second. The first is the more potent here.

CC(=O)N1C[C@H](F)[C@H](Nc2nc(N)c3c(-c4ccc5nc(C)n(CC(F)(F)F)c5n4)ccn3n2)C1 [Compound 762, 1-((3R,4S)-3-((4-Amino-5-(2-methyl-3-(2,2,2-trifluoroethyl)-3H-imidazo[4,5-b]pyridin-5-yl)pyrrolo[2,1-f][1,2,4]triazin-2-yl)amino)-4-fluoropyrrolidin-1-yl)ethan-1-one] and CC(=O)N1CC[C@H](Nc2nc(N)c3c(-c4ccc5nc(C)n(CC(F)(F)F)c5n4)ccn3n2)[C@H](F)C1 [Compound 777, 1-((3R,4S)-4-((4-Amino-5-(2-methyl-3-(2,2,2-trifluoroethyl)-3H-imidazo[4,5-b]pyridin-5-yl)pyrrolo[2,1-f][1,2,4]triazin-2-yl)amino)-3-fluoropiperidin-1-yl)ethan-1-one] are within 1.5-fold of each other in IC50: 1.5 nM for the first, 1.2 nM for the second.

Cc1nc2ccc(-c3ccn4nc(N[C@H]5CCN(C6COC6)C[C@H]5F)nc(N)c34)nc2n1CC(F)(F)F [Compound 780, N^2-((3R,4S)-3-Fluoro-1-(oxetan-3-yl)piperidin-4-yl)-5-(2-methyl-3-(2,2,2-trifluoroethyl)-3H-imidazo[4,5-b]pyridin-5-yl)pyrrolo[2,1-f][1,2,4]triazine-2,4-diamine] and Nc1nc(N[C@H]2CCN(C3COC3)C[C@H]2F)nn2ccc(-c3ccc4nnn(CC(F)F)c4n3)c12 [Compound 842, 5-(3-(2,2-Difluoroethyl)-3H-[1,2,3]triazolo[4,5-b]pyridin-5-yl)-N^2-((3R,4S)-3-fluoro-1-(oxetan-3-yl)piperidin-4-yl)pyrrolo[2,1-f][1,2,4]triazine-2,4-diamine] are within 1.5-fold of each other in IC50: 1.2 nM for the first, 1.5 nM for the second.

Compared with C[C@]1(O)CC[C@H](Nc2nc(N)c3c(-c4ccc5nnn(CC(F)F)c5n4)ccn3n2)CC1 [Compound 816, (1r,4r)-4-((4-Amino-5-(3-(2,2-difluoroethyl)-3H-[1,2,3]triazolo[4,5-b]pyridin-5-yl)pyrrolo[2,1-f][1,2,4]triazin-2-yl)amino)-1-methylcyclohexan-1-ol], C[C@]1(O)CC[C@H](Nc2nc(N)c3c(-c4ccc5ncn(CC(F)F)c5n4)ccn3n2)CC1 [Compound 986, (1r,4r)-4-((4-Amino-5-(3-(2,2-difluoroethyl)-3H-imidazo[4,5-b]pyridin-5-yl)pyrrolo[2,1-f][1,2,4]triazin-2-yl)amino)-1-methylcyclohexan-1-ol] is 1.9-fold lower in IC50: 1.3 nM for the first, 0.7 nM for the second. The second is the more potent here.

CN1CC[C@@H](Nc2nc(N)c3c(-c4ccc5nnn(CC(F)F)c5n4)ccn3n2)C(F)(F)C1 [Compound 850, (R)—N^2-(3,3-Difluoro-1-methylpiperidin-4-yl)-5-(3-(2,2-difluoroethyl)-3H-[1,2,3]triazolo[4,5-b]pyridin-5-yl)pyrrolo[2,1-f][1,2,4]triazine-2,4-diamine] and CN1CC[C@@H](Nc2nc(N)c3c(-c4ccc5ncn(CC(F)F)c5n4)ccn3n2)C(F)(F)C1 [Compound 991, (R)—N^2-(3,3-Difluoro-1-methylpiperidin-4-yl)-5-(3-(2,2-difluoroethyl)-3H-imidazo[4,5-b]pyridin-5-yl)pyrrolo[2,1-f][1,2,4]triazine-2,4-diamine] are within 1.5-fold of each other in IC50: 0.6 nM for the first, 0.4 nM for the second.

Compared with Nc1nc(N[C@@H]2CCN(C3COC3)CC2(F)F)nn2ccc(-c3ccc4nnn(CC(F)F)c4n3)c12 [Compound 854, (R)—N^2-(3,3-Difluoro-1-(oxetan-3-yl)piperidin-4-yl)-5-(3-(2,2-difluoroethyl)-3H-[1,2,3]triazolo[4,5-b]pyridin-5-yl)pyrrolo[2,1-f][1,2,4]triazine-2,4-diamine], Nc1nc(N[C@@H]2CCN(C3COC3)CC2(F)F)nn2ccc(-c3ccc4ncn(CC(F)F)c4n3)c12 [Compound 993, (R)—N^2-(3,3-Difluoro-1-(oxetan-3-yl)piperidin-4-yl)-5-(3-(2,2-difluoroethyl)-3H-imidazo[4,5-b]pyridin-5-yl)pyrrolo[2,1-f][1,2,4]triazine-2,4-diamine] is 3.5-fold lower in IC50: 2.1 nM for the first, 0.6 nM for the second. The second is the more potent here.

CN1CC[C@@H](Nc2nc(N)c3c(-c4ccc5ncn(CCF)c5n4)ccn3n2)C(F)(F)C1 [Compound 985, (R)—N^2-(3,3-Difluoro-1-methylpiperidin-4-yl)-5-(3-(2-fluoroethyl)-3H-imidazo[4,5-b]pyridin-5-yl)pyrrolo[2,1-f][1,2,4]triazine-2,4-diamine] and CN1CC[C@@H](Nc2nc(N)c3c(-c4ccc5ncn(CC(F)(F)F)c5n4)ccn3n2)C(F)(F)C1 [Compound 994, (R)—N^2-(3,3-Difluoro-1-methylpiperidin-4-yl)-5-(3-(2,2,2-trifluoroethyl)-3H-imidazo[4,5-b]pyridin-5-yl)pyrrolo[2,1-f][1,2,4]triazine-2,4-diamine] are within 1.5-fold of each other in IC50: 1.5 nM for the first, 1.2 nM for the second.

CC(=O)N1C[C@H](F)[C@H](Nc2nc(N)c3c(-c4ccc5ncn(CC(F)F)c5n4)ccn3n2)C1 [Compound 987, 1-((3R,4S)-3-((4-Amino-5-(3-(2,2-difluoroethyl)-3H-imidazo[4,5-b]pyridin-5-yl)pyrrolo[2,1-f][1,2,4]triazin-2-yl)amino)-4-fluoropyrrolidin-1-yl)ethan-1-one] and Nc1nc(N[C@@H]2CN(C3COC3)C[C@@H]2F)nn2ccc(-c3ccc4ncn(CC(F)F)c4n3)c12 [Compound 988, 5-(3-(2,2-Difluoroethyl)-3H-imidazo[4,5-b]pyridin-5-yl)-N^2-((3R,4S)-4-fluoro-1-(oxetan-3-yl)pyrrolidin-3-yl)pyrrolo[2,1-f][1,2,4]triazine-2,4-diamine] are within 1.5-fold of each other in IC50: 0.8 nM for the first, 0.6 nM for the second.

Nc1nc(N[C@H]2CCN(C3COC3)C[C@H]2F)nn2ccc(-c3ccc4ncn(CC(F)F)c4n3)c12 [Compound 990, 5-(3-(2,2-Difluoroethyl)-3H-imidazo[4,5-b]pyridin-5-yl)-N^2-((3R,4S)-3-fluoro-1-(oxetan-3-yl)piperidin-4-yl)pyrrolo[2,1-f][1,2,4]triazine-2,4-diamine] and CC(=O)N1CC[C@@H](Nc2nc(N)c3c(-c4ccc5ncn(CC(F)F)c5n4)ccn3n2)C(F)(F)C1 [Compound 992, (R)-1-(4-((4-Amino-5-(3-(2,2-difluoroethyl)-3H-imidazo[4,5-b]pyridin-5-yl)pyrrolo[2,1-f][1,2,4]triazin-2-yl)amino)-3,3-difluoropiperidin-1-yl)ethan-1-one] are within 1.5-fold of each other in IC50: 0.6 nM for the first, 0.7 nM for the second.
